Experimental data: patent publication US20150337013A1, “NOVEL ANTIBACTERIAL AGENTS FOR THE TREATMENT OF GRAM POSITIVE INFECTIONS” (priority 2008, published 2015)

Columns and labels:
Format in all cases: cell-based
[1] = test system: Staphylococcus aureus SAU.278, Daptomycin resistant mutant (D10); details: MHBc with 50 mg/L calcium, 18-20 hours at 37° C.
Procedure: (§1) Compounds according to Formula I were tested for antimicrobial activity against a panel of organisms. Aerobic organisms, Staphylococcus aureus, Enterococcus faecalis and E. faecium, were tested by broth microdilution according to Clinical and Laboratory Standards Institute (CLSI) document M7-A7 (Clinical and Laboratory Standards Institute. Methods for Dilution Antimicrobial Susceptibility Tests for Bacteria that Grow Aerobically; Approved Standard—Seventh Edition. CLSI document M7-A7 [ISBN 1-56238-587-9]. Clinical and Laboratory Standards Institute, 940 West Valley Road, Suite 1400, Wayne, Pa. 19087-1898 USA, 2006) with modifications as described below. Mueller Hinton Broth (MHBc) was supplemented with 50 mg/L calcium (equivalent to human physiological levels of calcium) and assay plates were incubated 18-20 hours at 37° C. with aeration (200 rpm).
(§2) In all cases the final concentration of dimethyl sulfoxide incubated with cells is less than or equal to 1%. For minimum inhibitory concentration (MIC) calculations, 2-fold dilutions of compounds were added to wells of a microtiter plate containing 5×10^5 bacteria in a final volume of 100 μL of media. Following incubation, (18-20 hours at 37° C. with aeration at 200 rpm) growth was confirmed visually by placing plates over a viewing apparatus (stand with a mirror underneath) and then the optical density (OD600) was measured using a SpectraMax 340PC^384 plate reader. Growth was defined as turbidity that could be detected with the naked eye or achieving minimum OD600of 0.1. MIC values (in μg/mL) were defined as the lowest concentration producing no visible turbidity.

[2] = test system: Enterococcus faecium EFM.384, Daptomycin resistant mutant (14-A); details: MHBc with 50 mg/L calcium, 18-20 hours at 37° C.
Procedure: as §1, §2

[3] = test system: Staphylococcus aureus SAU.42 (ATCC 29213); details: ATCC 29213
Procedure: as §1, §2

[4] = test system: Staphylococcus aureus SAU.399 (ATCC 43300), Methicillin and Oxacillin Resistant; details: ATCC 43300
Procedure: as §1, §2

[5] = test system: Enterococcus faecalis EFS.201 (ATCC 49452); details: ATCC 49452
Procedure: as §1, §2

[6] = test system: Enterococcus faecium EFM.14 (ATCC 6569); details: ATCC 6569
Procedure: as §1, §2

[7] = test system: Enterococcus faecalis EFS.312, Daptomycin resistant mutant (EFA); details: MHBc with 50 mg/L calcium, 18-20 hours at 37° C.
Procedure: as §1, §2

| Structure (SMILES) | Sa278 MIC [1] | Efm384 MIC [2] | Sa42 MIC [3] | Sa399 MIC [4] | Efs201 MIC [5] | Efm14 MIC [6] | Efs312 MIC [7] |
| --- | --- | --- | --- | --- | --- | --- | --- |
| CCCCCCCCC(=O)N[C@@H](Cc1c[nH]c2ccccc12)C(=O)N[C@H](CC(N)=O)C(=O)N[C@@H](CC(=O)O)C(=O)N[C@@H]1C(=O)NCC(=O)N[C@@H](CCCN)C(=O)N[C@@H](CC(=O)O)C(=O)N[C@H](C)C(=O)N[C@@H](CC(=O)O)C(=O)NCC(=O)N[C@H](CO)C(=O)N[C@@H]([C@H](C)CC(=O)O)C(=O)N[C@@H](CC(=O)c2ccccc2N)C(=O)O[C@@H]1C [Compound 1] | >32 µg/mL | >32 µg/mL | 8 µg/mL | 2 µg/mL | 32 µg/mL | 32 µg/mL | >32 µg/mL |
| CCCSc1ccc(-c2csc(C(=O)N[C@@H](Cc3c[nH]c4ccccc34)C(=O)N[C@H](CC(N)=O)C(=O)N[C@@H](CC(=O)O)C(=O)N[C@@H]3C(=O)NCC(=O)N[C@@H](CCCN)C(=O)N[C@@H](CC(=O)O)C(=O)N[C@H](C)C(=O)N[C@@H](CC(=O)O)C(=O)NCC(=O)N[C@H](CO)C(=O)N[C@@H]([C@H](C)CC(=O)O)C(=O)N[C@@H](CC(=O)c4ccccc4N)C(=O)O[C@@H]3C)c2)cc1 [Compound 56] | 8 µg/mL | 32 µg/mL | 2 µg/mL | 2 µg/mL | 8 µg/mL | 8 µg/mL | >32 µg/mL |
| CC(C)C1CCC(CCCC(=O)N[C@@H](Cc2c[nH]c3ccccc23)C(=O)N[C@H](CC(N)=O)C(=O)N[C@@H](CC(=O)O)C(=O)N[C@@H]2C(=O)NCC(=O)N[C@@H](CCCN)C(=O)N[C@@H](CC(=O)O)C(=O)N[C@H](C)C(=O)N[C@@H](CC(=O)O)C(=O)NCC(=O)N[C@H](CO)C(=O)N[C@@H]([C@H](C)CC(=O)O)C(=O)N[C@@H](CC(=O)c3ccccc3N)C(=O)O[C@@H]2C)CC1 (stereo partly shown) [Compound 21] | 2 µg/mL | – | 0.063 µg/mL | 1 µg/mL | 0.25 µg/mL | – | 32 µg/mL |
| CCCCCCCC(C)C(=O)N[C@@H](Cc1c[nH]c2ccccc12)C(=O)N[C@H](CC(N)=O)C(=O)N[C@@H](CC(=O)O)C(=O)N[C@@H]1C(=O)NCC(=O)N[C@@H](CCCN)C(=O)N[C@@H](CC(=O)O)C(=O)N[C@H](C)C(=O)N[C@@H](CC(=O)O)C(=O)NCC(=O)N[C@H](CO)C(=O)N[C@@H]([C@H](C)CC(=O)O)C(=O)N[C@@H](CC(=O)c2ccccc2N)C(=O)O[C@@H]1C (stereo partly shown) [Compound 13] | 32 µg/mL | >32 µg/mL | 2 µg/mL | 1 µg/mL | 16 µg/mL | 16 µg/mL | >32 µg/mL |
| CCCCOc1ccc(-c2ccc(C(=O)N[C@@H](Cc3c[nH]c4ccccc34)C(=O)N[C@H](CC(N)=O)C(=O)N[C@@H](CC(=O)O)C(=O)N[C@@H]3C(=O)NCC(=O)N[C@@H](CCCN)C(=O)N[C@@H](CC(=O)O)C(=O)N[C@H](C)C(=O)N[C@@H](CC(=O)O)C(=O)NCC(=O)N[C@H](CO)C(=O)N[C@@H]([C@H](C)CC(=O)O)C(=O)N[C@@H](CC(=O)c4ccccc4N)C(=O)O[C@@H]3C)cc2)cc1 [Compound 60] | 8 µg/mL | 16 µg/mL | 1 µg/mL | 4 µg/mL | 4 µg/mL | 4 µg/mL | >32 µg/mL |
| CCCCCc1ccc(C(=O)N[C@@H](Cc2c[nH]c3ccccc23)C(=O)N[C@H](CC(N)=O)C(=O)N[C@@H](CC(=O)O)C(=O)N[C@@H]2C(=O)NCC(=O)N[C@@H](CCCN)C(=O)N[C@@H](CC(=O)O)C(=O)N[C@H](C)C(=O)N[C@@H](CC(=O)O)C(=O)NCC(=O)N[C@H](CO)C(=O)N[C@@H]([C@H](C)CC(=O)O)C(=O)N[C@@H](CC(=O)c3ccccc3N)C(=O)O[C@@H]2C)cc1 [Compound 31] | >32 µg/mL | >32 µg/mL | 4 µg/mL | 4 µg/mL | 16 µg/mL | 16 µg/mL | >32 µg/mL |
| CCCCCCCCCC(C)(C)C(=O)N[C@@H](Cc1c[nH]c2ccccc12)C(=O)N[C@H](CC(N)=O)C(=O)N[C@@H](CC(=O)O)C(=O)N[C@@H]1C(=O)NCC(=O)N[C@@H](CCCN)C(=O)N[C@@H](CC(=O)O)C(=O)N[C@H](C)C(=O)N[C@@H](CC(=O)O)C(=O)NCC(=O)N[C@H](CO)C(=O)N[C@@H]([C@H](C)CC(=O)O)C(=O)N[C@@H](CC(=O)c2ccccc2N)C(=O)O[C@@H]1C [Compound 12] | 8 µg/mL | >32 µg/mL | 4 µg/mL | 2 µg/mL | 16 µg/mL | 8 µg/mL | 32 µg/mL |
| CCCCCCCCCCCC(=O)N[C@@H](Cc1c[nH]c2ccccc12)C(=O)N[C@H](CC(N)=O)C(=O)N[C@@H](CC(=O)O)C(=O)N[C@@H]1C(=O)NCC(=O)N[C@@H](CCCN)C(=O)N[C@@H](CC(=O)O)C(=O)N[C@H](C)C(=O)N[C@@H](CC(=O)O)C(=O)NCC(=O)N[C@H](CO)C(=O)N[C@@H]([C@H](C)CC(=O)O)C(=O)N[C@@H](CC(=O)c2ccccc2N)C(=O)O[C@@H]1C [Compound 3] | 1 µg/mL | 4 µg/mL | 0.5 µg/mL | 1 µg/mL | 0.5 µg/mL | 1 µg/mL | 32 µg/mL |
| C[C@H](CC(=O)O)[C@@H]1NC(=O)[C@@H](CO)NC(=O)CNC(=O)[C@H](CC(=O)O)NC(=O)[C@@H](C)NC(=O)[C@H](CC(=O)O)NC(=O)[C@H](CCCN)NC(=O)CNC(=O)[C@@H](NC(=O)[C@H](CC(=O)O)NC(=O)[C@@H](CC(N)=O)NC(=O)[C@H](Cc2c[nH]c3ccccc23)NC(=O)Cc2ccc(-c3ccc(Cl)cc3)cc2)[C@@H](C)OC(=O)[C@H](CC(=O)c2ccccc2N)NC1=O [Compound 65] | 16 µg/mL | >32 µg/mL | 2 µg/mL | 2 µg/mL | 8 µg/mL | 8 µg/mL | >32 µg/mL |
